{
  "source": "paper PMC6978363",
  "about": "“Chaperone mediated detection of small molecule target binding in cells” (Nature Communications, 2020)",
  "molecular_target": "T1, c-RAF (Homo sapiens, UniProt P04049)",
  "T1 construct": "gene RAF1",
  "T1 sequence (P04049 whole entry)": "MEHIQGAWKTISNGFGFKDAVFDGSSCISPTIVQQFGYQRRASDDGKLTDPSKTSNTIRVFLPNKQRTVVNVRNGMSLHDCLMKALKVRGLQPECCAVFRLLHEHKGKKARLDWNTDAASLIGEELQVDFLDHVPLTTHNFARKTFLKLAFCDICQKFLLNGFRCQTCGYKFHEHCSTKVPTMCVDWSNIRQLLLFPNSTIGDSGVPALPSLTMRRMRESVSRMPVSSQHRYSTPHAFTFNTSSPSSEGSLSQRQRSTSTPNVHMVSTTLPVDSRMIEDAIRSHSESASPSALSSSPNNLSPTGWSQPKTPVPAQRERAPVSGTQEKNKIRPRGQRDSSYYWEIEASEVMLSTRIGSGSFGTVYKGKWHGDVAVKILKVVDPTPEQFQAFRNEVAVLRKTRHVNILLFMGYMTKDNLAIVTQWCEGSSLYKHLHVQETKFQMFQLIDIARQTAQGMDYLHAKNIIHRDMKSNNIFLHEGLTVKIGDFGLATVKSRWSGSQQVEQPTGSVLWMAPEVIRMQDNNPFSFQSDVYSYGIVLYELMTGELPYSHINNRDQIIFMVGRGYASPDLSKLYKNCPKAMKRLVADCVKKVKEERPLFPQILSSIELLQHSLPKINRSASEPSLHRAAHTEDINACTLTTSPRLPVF",
  "assay": "c-RAF protein level change by immunofluorescence in A549 cells (with and without 17-AAG)",
  "type": "cell-based",
  "data": [
    {"molecule": "Cc1ccc(NC(=O)c2ccnc(C(F)(F)F)c2)cc1-c1cc(N2CCOCC2)nc(N2CC(O)C2)c1", "note": "[Novartis pan-RAF inhibitor]", "values": [
      {"measurement": "c-RAF protein level change by immunofluorescence in A549 cells (with and without)", "result": "The interactions between c-RAF and these inhibitors are examples of a small molecule causing a direct effect on protein abundance"}
    ]}
  ]
}
